This is an account of results in patent US10441569B2, “Self-emulsifying formulations of DIM-related indoles” (BioResponse, L.L.C., priority 2015, dated 2019).

The structures appear in SMILES notation. ≈ marks a conversion by molar mass, not a printed value. Like-named read-outs stand apart in the source and are kept apart here.

A short description of data set [1]: Experimental log P of DIM (octanol / aqueous shake-flask, HPLC). In kind it is physicochemical. The conditions noted are these: octanol / aqueous media (separate shake-flask solubilities); from octanol and aqueous shake-flask results; read-out: Experimental log P Determination. Here is the method: (§1) In directly determining the solubility of DIM the shake-flask method for determination of maximum solubility in aqueous media was utilized. The solubility was determined as described by Lindenberg et al., 2004, Eur J Pharm Biopharm. 58(2):265-78. The drug was weighed in excess of its expected solubility in Uniprep® vials equipped with a 0.45-μm membrane filter, and 2 ml of Milli-Q water, 0.01N HCL (pH 2.0), or phosphate buffer (pH 7.4) (USP) was added into the vial. The vials were incubated at 37±0.5° C. while shaking on a “Polymax 1040” orbital shaker (Heidolph, Schwabach). The samples of the solutions were taken after 4 or 24 hours by pressing the Uniprep® plunger down, diluted as appropriate, and the concentration of DIM was analyzed by HPLC, as described below. The measurements were done in triplicate. The maximum concentration of DIM in aqueous media used in this study was 0.6 μg/ml. The solubility or stability was not influenced by pH and was similar in water, 0.01N HCl or PBS (pH 7.4).

Data set [2] in a line: Shake-flask determination of maximum solubility of DIM. The format is physicochemical. The conditions noted are these: for solubility: 37 °C, thermodynamic from solid, read-out: maximal solubility. Here is the method: as §1
The nature of data set [3]: Intra-individual comparison of DIM plasma levels, one adult subject. In kind it is in vivo. The conditions noted are these: human, same adult subject, 300 mg oral. Here is the method: Repeated single-use of 300 mg oral doses of DIM in different DIM formulations was conducted. Absorption studies using the same adult subject on separate test days were performed. This allowed comparison of DIM absorption and Plasma Pharmacokinetics through comparison of DIM plasma levels measured following administration of unformulated crystalline DIM, following administration of absorption-enhanced, microencapsulated DIM (BR-DIM), following administration of DIM SMEDDS Formulation “D” without Poloxamer 124, and following administration of DIM SMEDDS Formulation “G” with Poloxamer 124, to the human subject. The same oral administration and timed plasma sampling protocol was used on different study days, separated by at least 2 weeks. Plasma level results for each time point are presented in the following chart.

As for `c1ccc2c(Cc3c[nH]c4ccccc34)c[nH]c2c1` [DIM, 3,3′-diindolylmethane], the logP in data set [1] is 3.58. The solubility in data set [2] (0.01N HCl, simulated gastric fluid, aqueous acid environment of pH 2) is 0.6 µg/mL (≈ 2.44 µM). Further, the solubility in data set [2] (in water) came out at 0.7 µg/mL (≈ 2.84 µM). For the same molecule, the “concentration of DIM in Octanol” value in data set [2] (Octanol, shake-flask method, HPLC) is on record as 2,300 μg/ml. Also, the “maximum concentration of DIM in aqueous media” value in data set [2] (water, 0.01N HCl (pH 2.0) or phosphate buffer (pH 7.4), 37°C) was 0.6 µg/mL. In data set [3], this molecule displayed an exposure (AUC) of 17 ng·h/mL and a Cmax of 6.8 ng/mL. Further, the concentration at 0 h in data set [3] (time 0 hr, read-out: Plasma level of DIM) stood at 0 ng/mL. Also, the concentration at 1 h in data set [3] (time 1 hr, read-out: Plasma level of DIM) is 4.5 ng/mL. Further, in data set [3] (time 2 hr, read-out: Plasma level of DIM), the concentration at 2 h worked out at 6.8 ng/mL. Also, the concentration at 3 h in data set [3] (time 3 hr, read-out: Plasma level of DIM) was determined as 4.7 ng/mL. The concentration at 4 h in data set [3] (time 4 hr, read-out: Plasma level of DIM) worked out at 2.6 ng/mL.

In general, solubility refers to the concentration that dissolves in the medium under given conditions. A word on the AUC: it is the area under the concentration-time curve, a measure of exposure. A word on the Cmax: it is the highest concentration seen after dosing.
